Test results reported in patent US20250230193A1, “CYCLIC COMPOUND HAVING SELECTIVE KRAS INHIBITORY EFFECT ON HRAS AND NRAS” (CHUGAI SEIYAKU KABUSHIKI KAISHA, priority 2022, published 2025).

Legend:
[1] = target: GDP-bound NRAS wild-type protein (Homo sapiens, UniProt P01111); assay: Binding to NRAS by surface plasmon resonance (SPR), Single Cycle Kinetics; conditions: KD ratio NRAS/KRAS, SPR, GDP-bound wild-type proteins
[2] = target: GDP-bound HRAS wild-type protein (Homo sapiens, UniProt P01112); assay: Binding to HRAS by surface plasmon resonance (SPR), Single Cycle Kinetics; conditions: KD ratio HRAS/KRAS, SPR, GDP-bound wild-type proteins
Chain of GDP-bound HRAS wild-type protein (P01112 whole entry): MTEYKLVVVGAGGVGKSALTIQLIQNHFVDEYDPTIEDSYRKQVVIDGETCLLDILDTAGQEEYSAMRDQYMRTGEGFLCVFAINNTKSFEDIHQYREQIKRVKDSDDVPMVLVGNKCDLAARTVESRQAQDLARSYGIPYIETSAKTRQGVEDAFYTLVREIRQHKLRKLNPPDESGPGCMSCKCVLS

Chain of GDP-bound NRAS wild-type protein (P01111 whole entry): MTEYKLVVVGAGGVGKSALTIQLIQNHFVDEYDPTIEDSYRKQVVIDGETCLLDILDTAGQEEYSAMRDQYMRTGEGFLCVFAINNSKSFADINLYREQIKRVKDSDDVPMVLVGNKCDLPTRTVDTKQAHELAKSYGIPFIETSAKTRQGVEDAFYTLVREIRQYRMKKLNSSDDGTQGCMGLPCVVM

SMILES	NRAS/KRAS (ratio of KD value with respect to GDP-bound NRAS wild-type protein to KD value with respect to KRAS) [1]	HRAS/KRAS (ratio of KD value with respect to GDP-bound HRAS wild-type protein to KD value with respect to KRAS) [2]
CCC[C@H]1C(=O)N[C@@H](C2CCCCC2)C(=O)N(C)CC(=O)N(C)[C@H]2C/C=C\CCN(C2=O)[C@@H](Cc2ccc(C(F)(F)F)cc2)C(=O)N(C)CC(=O)N[C@@H](CCc2ccc(C(F)(F)F)c(Cl)c2)C(=O)N2C[C@H](OCC)C[C@H]2C(=O)NC2(CC(C)(C)C2)C(=O)N(C)[C@@H](C2CCCC2)C(=O)N(C)[C@H](C(=O)N(C)C)CC(=O)N1C [PP2996]	AA (a compound having 20 or more is denoted as AA)	A (a compound having 10 or more and less than 20 is denoted as A)
CCC[C@H]1C(=O)N[C@@H]([C@@H](C)CC)C(=O)N(C)CC(=O)N(C)[C@H]2C/C=C\CCN(C2=O)[C@@H](Cc2ccc(C)cc2)C(=O)N(C)CC(=O)N[C@@H](CCc2cc(F)c(C(F)(F)F)c(F)c2)C(=O)N2CC3(CC3)C[C@H]2C(=O)NC2(CC(C)(C)C2)C(=O)N(C)[C@@H](CC(C)(C)C)C(=O)N(C)[C@H](C(=O)N(C)C)CC(=O)N1C [PP2997]	A (a compound having 10 or more and less than 20 is denoted as A)	B (a compound having 3 or more and less than 10 is denoted as B)
CCC[C@H]1C(=O)N[C@@H](C2CCCCC2)C(=O)N(C)CC(=O)N(C)[C@H]2C/C=C\CCN(C2=O)[C@@H](Cc2ccc(C)cc2)C(=O)N(C)CC(=O)N[C@@H](CCc2ccc(C(F)(F)F)c(Cl)c2)C(=O)N2C[C@H](OCC)C[C@H]2C(=O)NC2(CC(C)(C)C2)C(=O)N(C)[C@@H](C2CCCC2)C(=O)N(C)[C@H](C(=O)N(C)C)CC(=O)N1C [PP2998]	A (a compound having 10 or more and less than 20 is denoted as A)	AA (a compound having 20 or more is denoted as AA)
CCC[C@H]1C(=O)N[C@@H](C2CCCC2)C(=O)N(C)CC(=O)N(C)[C@H]2C/C=C\CCN(C2=O)[C@@H](Cc2ccc(C)cc2)C(=O)N(C)CC(=O)N[C@@H](CCc2cc(F)c(C(F)(F)F)c(F)c2)C(=O)N2CC3(CC3)C[C@H]2C(=O)NC2(CC(C)(C)C2)C(=O)N(C)[C@@H](CC(C)(C)C)C(=O)N(C)[C@H](C(=O)N(C)C)CC(=O)N1C [PP2999]	AA (a compound having 20 or more is denoted as AA)	A (a compound having 10 or more and less than 20 is denoted as A)
CCC[C@H]1C(=O)N[C@@H](C2CCOCC2)C(=O)N(C)CC(=O)N(C)[C@H]2C/C=C\CCN(C2=O)[C@@H](Cc2ccc(C(F)(F)F)cc2)C(=O)N(C)CC(=O)N[C@@H](CCc2ccc(C(F)(F)F)c(Cl)c2)C(=O)N2C[C@H](OCC)C[C@H]2C(=O)NC2(CC(C)(C)C2)C(=O)N(C)[C@@H](C2CCCC2)C(=O)N(C)[C@H](C(=O)N(C)C)CC(=O)N1C [PP3000]	AA (a compound having 20 or more is denoted as AA)	A (a compound having 10 or more and less than 20 is denoted as A)
CCC[C@H]1C(=O)N[C@@H](C2CCOCC2)C(=O)N(C)CC(=O)N(C)[C@H]2C/C=C\CCN(C2=O)[C@@H](Cc2ccc(C)cc2)C(=O)N(C)CC(=O)N[C@@H](CCc2ccc(C(F)(F)F)c(Cl)c2)C(=O)N2C[C@H](OCC)C[C@H]2C(=O)NC2(CC(C)(C)C2)C(=O)N(C)[C@@H](C2CCCC2)C(=O)N(C)[C@H](C(=O)N(C)C)CC(=O)N1C [PP3002]	A (a compound having 10 or more and less than 20 is denoted as A)	A (a compound having 10 or more and less than 20 is denoted as A)
CCC[C@H]1C(=O)N[C@@H]([C@@H](C)CC)C(=O)N(C)CC(=O)N(C)[C@H]2C/C=C\CCN(C2=O)[C@@H](Cc2ccc(C)cc2)C(=O)N(C)CC(=O)N[C@@H](CCc2cc(F)c(C(F)(F)F)c(F)c2)C(=O)N2CC3(CC3)C[C@H]2C(=O)NC2(CC(C)(C)C2)C(=O)N(C)[C@@H](CC(F)(F)F)C(=O)N(C)[C@H](C(=O)N(C)C)CC(=O)N1C [PP3003]	AA (a compound having 20 or more is denoted as AA)	A (a compound having 10 or more and less than 20 is denoted as A)
CCC[C@H]1C(=O)N[C@@H](C2CCCC2)C(=O)N(C)CC(=O)N(C)[C@H]2C/C=C\CCN(C2=O)[C@@H](Cc2ccc(C)cc2)C(=O)N(C)CC(=O)N[C@@H](CCc2ccc(C(F)(F)F)c(OC)c2)C(=O)N2C[C@H](OCC)C[C@H]2C(=O)NC2(CC(C)(C)C2)C(=O)N(C)[C@@H](CC(C)(C)C)C(=O)N(C)[C@H](C(=O)N(C)C)CC(=O)N1C [PP3005]	A (a compound having 10 or more and less than 20 is denoted as A)	B (a compound having 3 or more and less than 10 is denoted as B)
CCC[C@H]1C(=O)N[C@@H]([C@@H](C)CC)C(=O)N(C)CC(=O)N(C)[C@H]2C/C=C\CCN(C2=O)[C@@H](Cc2ccc(C)cc2)C(=O)N(C)CC(=O)N[C@@H](CCc2ccc(C(F)(F)F)c(OC)c2)C(=O)N2C[C@H](OCC)C[C@H]2C(=O)NC2(CC(C)(C)C2)C(=O)N(C)[C@@H]([C@@H](C)CC)C(=O)N(C)[C@H](C(=O)N(C)C)CC(=O)N1C [PP3006]	A (a compound having 10 or more and less than 20 is denoted as A)	A (a compound having 10 or more and less than 20 is denoted as A)
CCC[C@H]1C(=O)N[C@@H]([C@@H](C)CC)C(=O)N(C)CC(=O)N(C)[C@H]2C/C=C\CCN(C2=O)[C@@H](Cc2ccc(C)cc2)C(=O)N(C)CC(=O)N[C@@H](CCc2ccc(C(F)(F)F)c(OC)c2)C(=O)N2C[C@H](OCC)C[C@H]2C(=O)NC2(CC(C)(C)C2)C(=O)N(C)[C@@H](CC(F)(F)F)C(=O)N(C)[C@H](C(=O)N(C)C)CC(=O)N1C [PP3007]	A (a compound having 10 or more and less than 20 is denoted as A)	A (a compound having 10 or more and less than 20 is denoted as A)
CCC[C@H]1C(=O)N[C@@H]([C@@H](C)CC)C(=O)N(C)CC(=O)N(C)[C@H]2C/C=C\CCN(C2=O)[C@@H](Cc2ccc(C)cc2)C(=O)N(C)CC(=O)N[C@@H](CCc2ccc(C(F)(F)F)c(OC)c2)C(=O)N2C[C@H](OCC)C[C@H]2C(=O)NC2(CC(C)(C)C2)C(=O)N(C)[C@@H](CC(C)C)C(=O)N(C)[C@H](C(=O)N(C)C)CC(=O)N1C [PP3008]	A (a compound having 10 or more and less than 20 is denoted as A)	A (a compound having 10 or more and less than 20 is denoted as A)
CCC[C@H]1C(=O)N[C@@H]([C@@H](C)CC)C(=O)N(C)CC(=O)N(C)[C@H]2C/C=C\CCN(C2=O)[C@@H](Cc2ccc(C)cc2)C(=O)N(C)CC(=O)N[C@@H](CCc2ccc(C(F)(F)F)c(OC)c2)C(=O)N2CC3(CC3)C[C@H]2C(=O)NC2(CC(C)(C)C2)C(=O)N(C)[C@@H](CC(C)(C)C)C(=O)N(C)[C@H](C(=O)N(C)C)CC(=O)N1C [PP3009]	A (a compound having 10 or more and less than 20 is denoted as A)	A (a compound having 10 or more and less than 20 is denoted as A)
CCC[C@H]1C(=O)N[C@@H](C2CCCC2)C(=O)N(C)CC(=O)N(C)[C@H]2C/C=C\CCN(C2=O)[C@@H](Cc2ccc(C)cc2)C(=O)N(C)CC(=O)N[C@@H](CCc2ccc(C(F)(F)F)c(OC)c2)C(=O)N2CC3(CC3)C[C@H]2C(=O)NC2(CC(C)(C)C2)C(=O)N(C)[C@@H](CC(C)(C)C)C(=O)N(C)[C@H](C(=O)N(C)C)CC(=O)N1C [PP3010]	B (a compound having 3 or more and less than 10 is denoted as B)	B (a compound having 3 or more and less than 10 is denoted as B)
CCC[C@H]1C(=O)N[C@@H]([C@@H](C)CC)C(=O)N(C)CC(=O)N(C)[C@H]2C/C=C\CCN(C2=O)[C@@H](Cc2ccc(C)cc2)C(=O)N(C)CC(=O)N[C@@H](CCc2ccc(C(F)(F)F)c(OC)c2)C(=O)N2CC3(CC3)C[C@H]2C(=O)NC2(CC(C)(C)C2)C(=O)N(C)[C@@H]([C@@H](C)CC)C(=O)N(C)[C@H](C(=O)N(C)C)CC(=O)N1C [PP3011]	A (a compound having 10 or more and less than 20 is denoted as A)	B (a compound having 3 or more and less than 10 is denoted as B)
CCC[C@H]1C(=O)N[C@@H]([C@@H](C)CC)C(=O)N(C)CC(=O)N(C)[C@H]2C/C=C\CCN(C2=O)[C@@H](Cc2ccc(C)cc2)C(=O)N(C)CC(=O)N[C@@H](CCc2ccc(C(F)(F)F)c(OC)c2)C(=O)N2CC3(CC3)C[C@H]2C(=O)NC2(CC(C)(C)C2)C(=O)N(C)[C@@H](CC(F)(F)F)C(=O)N(C)[C@H](C(=O)N(C)C)CC(=O)N1C [PP3012]	A (a compound having 10 or more and less than 20 is denoted as A)	A (a compound having 10 or more and less than 20 is denoted as A)
